The target of one assay is T1, bovine cardiac myosin (Bos taurus, UniProt Q9BE39).
T1 construct: The source of cardiac myosin was from bovine heart in the form of skinned myofibrils; from tissue; host or cells: bovine heart, skinned myofibrils
Put plainly: Myosin inhibition assay (PK/LDH-coupled ATPase, bovine cardiac myofibrils). Type of assay: biochemical.

Assay [1] has as its system cardiac contractility in rat. Description: Acute pharmacodynamic effect in rat (echocardiographic fractional shortening). Type of assay: in vivo. The following applies: male Sprague-Dawley rats, single dose 4 mg/kg by oral gavage, percent reduction of baseline. The protocol:
Representative compounds were tested for their ability to modulate cardiac contractility in rat as a measure of in vivo target engagement. Fractional shortening, a measure of contractility, was determined by noting the change in the diameter of the left ventricle at the end of systole/contraction (LVESd) relative to diastole/relaxation (LVEDd) and expressing this change as the ratio FS=(LVEDd−LVESd)/LVEDd. Fed male Sprague-Dawley rats were lightly anesthetized with isofluorane and baseline fractional shortening was measured in the parasternal position using transthoracic echocardiography (TTE). Following this measurement, animals were recovered and received a single dose of compound (4 mg/kg) by oral gavage. At three hours post-dose, second and third echocardiograms were collected under light anesthesia to determine drug effects on contractility. Effects are represented in Table 5 as a percent reduction of baseline fractional shortening.

Assay [2] relates to adult rat ventricular myocytes. Put plainly: Cardiomyocyte contractility assay (fractional shortening, IonOptix). Type of assay: cell-based. As to conditions: Ventricular myocyte, 5 min, 5 minutes of compound; for inhibition at 1 µM: 1.0 uM compound; for inhibition at 0.3 µM: 0.3 uM compound. Here is the method:
Contractility of adult rat ventricular myocytes is determined by edge detection with an IonOptix contractility system. Aliquots of myocytes in Tyrode buffer (137 mM NaCl, 3.7 mM KCL, 0.5 mM MgCl2, 1.5 mM CaCl2, 4 mM HEPES, 11 mM glucose) are placed in a perfusion chamber (Series 20 RC-27NE; Warner Instruments), allowed to adhere to the coverslip, and then perfused with 37° C. Tyrode buffer. Myocytes are filed stimulated at 1 Hz and 10V. Only myocytes with clear striations, quiescent prior to pacing, with a cell length of 120-180 microns, a basal fractional shortening equal to 3-8% of the cell length, and a contraction velocity greater than 100 microns per second are used for contractility experiments. To determine the response to compounds, myocytes are first perfused for 60 seconds with Tyrodes buffer followed by 5 minutes of compound and a 140 second washout with Tyrodes buffer. Data is continuously recorded using IonOptix software. Contractility data is analyzed using Ionwizard software (IonOptix). For each cell, 10-20 contractility transients were averaged and compared under basal (no compound) and compound-treated conditions. Compound activity is measured by effects on fractional shortening (FS), where fractional shortening is the ratio of the peak length of the cell at contraction divided by the basal cell length normalized to 100% for an untreated cell.

[3] abbreviates: bovine cardiac myofibrils, calcium giving 50% activation (pCa50), read-out: Biochemical Activity (pCa50).
Setting [4] is: bovine cardiac myofibrils, calcium giving 75% activation (pCa75), read-out: Biochemical Activity (pCa75).

The structures appear in SMILES notation. Where two headings read alike, the source gives them in different places.

This is an account of results in patent USRE50050E1, “Pyrimidinedione compounds” (MyoKardia, Inc., priority 2013, dated 2024).

T1 sequence (Q9BE39 whole entry): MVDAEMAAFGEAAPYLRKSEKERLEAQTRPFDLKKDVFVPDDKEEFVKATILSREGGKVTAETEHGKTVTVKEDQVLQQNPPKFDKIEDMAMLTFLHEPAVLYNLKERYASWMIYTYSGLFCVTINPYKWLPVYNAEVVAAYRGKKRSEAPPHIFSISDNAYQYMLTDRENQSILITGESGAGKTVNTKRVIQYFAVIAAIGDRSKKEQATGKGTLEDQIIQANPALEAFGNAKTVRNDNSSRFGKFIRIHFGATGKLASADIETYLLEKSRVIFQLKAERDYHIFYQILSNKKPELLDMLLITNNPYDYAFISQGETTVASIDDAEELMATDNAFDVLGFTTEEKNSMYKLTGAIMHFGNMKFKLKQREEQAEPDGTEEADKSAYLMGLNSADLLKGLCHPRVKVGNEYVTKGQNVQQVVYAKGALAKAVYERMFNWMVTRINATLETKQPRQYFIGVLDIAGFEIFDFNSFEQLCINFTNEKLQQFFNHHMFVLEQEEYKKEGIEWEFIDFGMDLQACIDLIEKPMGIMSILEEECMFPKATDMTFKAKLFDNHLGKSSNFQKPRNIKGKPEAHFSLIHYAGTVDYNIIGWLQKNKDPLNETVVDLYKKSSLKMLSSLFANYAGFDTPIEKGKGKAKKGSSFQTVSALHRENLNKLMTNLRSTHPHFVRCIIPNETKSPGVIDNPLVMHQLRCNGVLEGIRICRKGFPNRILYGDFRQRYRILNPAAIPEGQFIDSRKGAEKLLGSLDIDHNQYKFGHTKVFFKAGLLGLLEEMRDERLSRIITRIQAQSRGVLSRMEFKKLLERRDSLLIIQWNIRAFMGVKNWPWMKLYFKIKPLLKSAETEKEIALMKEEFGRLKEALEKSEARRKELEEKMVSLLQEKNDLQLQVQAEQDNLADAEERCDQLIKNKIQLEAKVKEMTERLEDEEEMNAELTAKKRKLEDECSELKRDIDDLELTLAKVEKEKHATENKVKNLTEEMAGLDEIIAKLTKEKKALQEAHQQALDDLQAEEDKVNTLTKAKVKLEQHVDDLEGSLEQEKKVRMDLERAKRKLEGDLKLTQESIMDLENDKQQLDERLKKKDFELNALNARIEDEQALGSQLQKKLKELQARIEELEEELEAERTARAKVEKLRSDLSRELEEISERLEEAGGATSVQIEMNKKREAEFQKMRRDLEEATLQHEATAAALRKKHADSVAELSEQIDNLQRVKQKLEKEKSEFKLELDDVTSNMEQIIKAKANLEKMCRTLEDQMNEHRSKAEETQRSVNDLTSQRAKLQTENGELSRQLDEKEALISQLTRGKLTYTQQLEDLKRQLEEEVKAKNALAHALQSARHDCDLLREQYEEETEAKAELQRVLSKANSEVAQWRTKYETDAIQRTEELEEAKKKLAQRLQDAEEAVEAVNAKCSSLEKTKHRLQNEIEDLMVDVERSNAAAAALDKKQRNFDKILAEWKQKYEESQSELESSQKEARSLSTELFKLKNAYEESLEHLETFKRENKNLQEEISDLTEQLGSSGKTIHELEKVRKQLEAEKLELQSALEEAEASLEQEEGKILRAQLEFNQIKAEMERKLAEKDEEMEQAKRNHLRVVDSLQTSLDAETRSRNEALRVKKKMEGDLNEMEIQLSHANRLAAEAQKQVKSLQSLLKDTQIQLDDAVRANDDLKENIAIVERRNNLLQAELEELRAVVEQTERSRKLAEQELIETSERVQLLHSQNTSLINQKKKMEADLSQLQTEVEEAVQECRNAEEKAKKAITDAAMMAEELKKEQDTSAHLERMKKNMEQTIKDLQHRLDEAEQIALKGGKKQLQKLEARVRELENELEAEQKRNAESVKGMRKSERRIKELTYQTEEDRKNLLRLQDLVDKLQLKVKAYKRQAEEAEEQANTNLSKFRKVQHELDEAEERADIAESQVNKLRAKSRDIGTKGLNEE
T1 sequence (P85100 whole entry partner): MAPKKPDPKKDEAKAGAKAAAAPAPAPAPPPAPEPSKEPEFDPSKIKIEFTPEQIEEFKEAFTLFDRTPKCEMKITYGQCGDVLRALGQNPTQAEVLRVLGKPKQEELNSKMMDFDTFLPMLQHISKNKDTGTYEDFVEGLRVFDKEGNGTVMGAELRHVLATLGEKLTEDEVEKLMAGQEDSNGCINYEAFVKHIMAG
T1 sequence (Q3SZE5 whole entry partner): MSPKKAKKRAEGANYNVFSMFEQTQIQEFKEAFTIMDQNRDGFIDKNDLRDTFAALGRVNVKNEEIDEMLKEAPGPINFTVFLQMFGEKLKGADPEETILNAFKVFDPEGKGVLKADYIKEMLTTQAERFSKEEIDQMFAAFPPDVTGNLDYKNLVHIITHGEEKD
Protocol for bovine cardiac myosin: Small molecule agents were assessed for their ability to inhibit the enzymatic activity of bovine cardiac myosin using a biochemical assay that couples the release of ADP (adenosine diphosphate) from cardiac myosin to an enzymatic coupling system consisting of pyruvate kinase and lactate dehydrogenase (PK/LDH) and monitoring the absorbance decrease of NADH (at 340 nm) as a function of time. PK converts ADP to ATP (adenosine triphosphate) by converting PEP (phosphoenolpyruvate) to pyruvate. Pyruvate is then converted to lactate by LDH by converting NADH (nicotinamide adenine dinucleotide) to NAD (oxidized nicotinamide adenine dinucleotide). The source of cardiac myosin was from bovine heart in the form of skinned myofibrils. Prior to testing small molecule agents, the bovine myofibrils were assessed for their calcium responsiveness and the calcium concentration that achieves either a 50% (pCa50) or 75% (pCa75) activation of the myofibril system was chosen as the final condition for assessing the inhibitory activity of the small molecule agents. All enzymatic activity was measured in a buffered solution containing 12 mM PIPES (piperazine-N,N′-bis(2-ethanesulfonic acid), 2 mM magnesium chloride at pH 6.8 (PM 12 buffer). Final assay conditions were 1 mg/mL of bovine cardiac myofibrils, 0.4 mM PK/LDH, 50 uM ATP, 0.1 mg/mL BSA (bovine serum albumin), 10 ppm antifoam, 1 mM DTT, 0.5 mM NADH, 1.5 mM PEP at the desired free calcium concentration required to achieve either 50% or 75% activation of the myofibrils.
A dilution series of compound was created in DMSO such that the final desired concentration of compound would be achieved in a volume of 100 μL with a fixed DMSO concentration of 2% (v/v). Typically 2 μL of the dilution series were added to 96 well plate to achieve an 8 or 12 point dose response. Following the addition of 50 μL of a solution containing bovine cardiac myofibrils, PK/LDH and a solution of calcium (that achieved the desired activation), the enzymatic reaction was started with the addition of 50 μL of a solution containing ATP, PEP and NADH. The reaction progress was followed in a Molecular Devices M5e plate reader at ambient temperature using clear half area plates. The plate reader was configured to read absorbance at 340 nm in kinetics mode for 15 minutes. Data were recorded as the slope of the absorbance response to time. The slopes of the absorbance response as a function of time were normalized to slopes on the plate containing DMSO. This normalized rate was then plotted as a function of small molecule concentration and the data was fitted to a four-parameter fit using GraphPad Prism. The midpoint of this plot is the 1050 and is the concentration at which fifty percent of the total response is inhibited.

For the molecule `C[C@H](Nc1cc(=O)n(-c2ccccc2)c(=O)[nH]1)c1ccccc1` [Compound 45], the IC50 on bovine cardiac myosin (setting [3]) and at bovine cardiac myosin (setting [4]) was < 1000 nM each time. Moreover, the “% Reduction in Fractional Shortening 3 h post-dose” value in assay [1] is listed as “+ (+ represents a relative change in fractional shortening less than 15%)”.

The term inhibition denotes the drop in the measured response relative to a control, in per cent. Low values mean a response near the control, high ones a response far below the control. Turning to `C[C@H](Nc1cc(=O)n(C2CCN(S(C)(=O)=O)CC2)c(=O)[nH]1)c1ccccc1` [Compound 12, (S)-3-(1-(methylsulfonyl)piperidin-4-yl)-6-(1-phenylethylamino)pyrimidine-2,4(1H,3H)-dione], at bovine cardiac myosin (setting [4]), the IC50 was < 1000 nM. Further, the inhibition at 1 µM in assay [2] lay within 33 to 66%.

Take `C[C@H](Nc1cc(=O)n(C2CCC2)c(=O)[nH]1)c1ccccc1` [Compound 69, (S)-3-cyclobutyl-6-((1-phenylethyl)amino)pyrimidine-2,4(1H,3H)-dione]: the IC50 on bovine cardiac myosin (setting [3]) was < 1000 nM; on bovine cardiac myosin (setting [4]) it was 1000 to 15000 nM. For the same molecule, in assay [1], the “% Reduction in Fractional Shortening 3 h post-dose” value is “+ (+ represents a relative change in fractional shortening less than 15%)”.

As to `CC(C)n1c(=O)cc(N[C@H](C)c2ccccc2)[nH]c1=O` [Compound 19R], the inhibition at 1 µM in assay [2] is < 33%.

Regarding `C[C@H](Nc1cc(=O)n(-c2cc(F)cc(F)c2)c(=O)[nH]1)c1ccccc1` [Compound 49, (S)-3-(3,5-difluorophenyl)-6-((1-phenylethyl)amino)pyrimidine-2,4(1H,3H)-dione], the IC50 on bovine cardiac myosin (setting [3]) and at bovine cardiac myosin (setting [4]) was < 1000 nM in each case. The “% Reduction in Fractional Shortening 3 h post-dose” value in assay [1] is “+++ (+++ presents a relative change in fractional shortening greater than 30%)”.

For `CC(C)n1c(=O)cc(N[C@@H](C)c2cccc(F)c2)[nH]c1=O` [Compound 27], the IC50 at bovine cardiac myosin (setting [3]) and on bovine cardiac myosin (setting [4]) was < 1000 nM each time. The same molecule yielded an inhibition at 0.3 µM in assay [2] of 33 to 66%.

On to `C[C@H](Nc1cc(=O)n(CC2CC2)c(=O)[nH]1)c1cccc(F)c1` [Compound 125], for which, on bovine cardiac myosin (setting [3]), the IC50 was < 1000 nM.

As for `CCn1c(=O)cc(N[C@H](c2ccccc2)C2CCC2)[nH]c1=O` [Compound 106], the IC50 on bovine cardiac myosin (setting [3]) is < 1000 nM.

In the case of `CCn1c(=O)cc(N[C@@H](C)c2cccc(C(F)(F)F)c2)[nH]c1=O` [Compound 124], on bovine cardiac myosin (setting [3]), the IC50 was < 1000 nM.

As to `CC[C@H](C)n1c(=O)cc(N[C@@H](C)c2ccc(F)cc2)[nH]c1=O` [Compound 135], the IC50 on bovine cardiac myosin (setting [3]) was < 1000 nM.

On to `COCCn1c(=O)cc(N[C@@H](C)c2ccccc2)[nH]c1=O` [Compound 102], for which the IC50 on bovine cardiac myosin (setting [3]) lay within 1000 to 15000 nM.

Take `C[C@H](Nc1cc(=O)n([C@@H](C)C(F)(F)F)c(=O)[nH]1)c1ccccc1` [Compound 95]: the IC50 on bovine cardiac myosin (setting [3]) and at bovine cardiac myosin (setting [4]) was < 1000 nM in each case.

Consider `C[C@H](Nc1cc(=O)n(CC(F)(F)F)c(=O)[nH]1)c1ccc2c(c1)OCO2` [Compound 67, (S)-6-((1-(benzo[d][1,3]dioxol-5-yl)ethyl)amino)-3-(2,2,2-trifluoroethyl)pyrimidine-2,4(1H,3H)-dione], for which the IC50 on bovine cardiac myosin (setting [3]) is < 1000 nM. Besides, the inhibition at 1 µM in assay [2] is > 66%.

As to `C[C@H](Nc1cc(=O)n([C@H](C)COCc2ccccc2)c(=O)[nH]1)c1ccccc1` [Compound 53, 3-((R)-1-(benzyloxy)propan-2-yl)-6-(((S)-1-phenylethyl)amino)pyrimidine-2,4(1H,3H)-dione], the IC50 at bovine cardiac myosin (setting [4]) lay within 1000 to 15000 nM.

With `CC(C)n1c(=O)cc(N[C@@H](C)c2c(F)cccc2F)[nH]c1=O` [Compound 59, (S)-6-((1-(2,6-difluorophenyl)ethyl)amino)-3-isopropylpyrimidine-2,4(1H,3H)-dione], the IC50 was < 1000 nM on bovine cardiac myosin (setting [4]) and 450 nM on bovine cardiac myosin (pCa75, assay conducted using 0.5 μM myosin, IC50 values below 1.0 μM are approximate, read-out: IC50 (pCa75)).

As for `CC(C)n1c(=O)[nH]c(N[C@@H](C)c2ccccc2)c(F)c1=O` [Compound 2, (S)-5-Fluoro-3-isopropyl-6-((1-phenylethyl)amino)pyrimidine-2,4(1H,3H)-dione], the IC50 at bovine cardiac myosin (setting [4]) is 1000 to 15000 nM. In addition, in assay [2], the inhibition at 0.3 µM fell in the range of 33 to 66% and the inhibition at 1 µM was > 66%.

For `CC(C)n1c(=O)cc(N[C@@H](C)c2cccc(-n3cccn3)c2)[nH]c1=O` [Compound 17, (S)-6-((1-(3-(1H-pyrazol-1-yl)phenyl)ethyl)amino)-3-isopropylpyrimidine-2,4(1H,3H)-dione], the IC50 at bovine cardiac myosin (setting [4]) was < 1000 nM.

`CC(C)n1c(=O)cc(N[C@@H](C)c2ccccc2C#N)[nH]c1=O` [Compound 56, (S)-3-isopropyl-6-((1-(2-cyanophenyl)ethyl)amino)pyrimidine-2,4(1H,3H)-dione]: the IC50 on bovine cardiac myosin (setting [4]) is > 15000 nM.

Consider `COc1cccc([C@H](C)Nc2cc(=O)n(C3CCOCC3)c(=O)[nH]2)c1` [Compound 10, (S)-6-((1-(3-methoxyphenyl)ethyl)amino)-3-(tetrahydro-2H-pyran-4-yl)pyrimidine-2,4(1H,3H)-dione], for which the IC50 on bovine cardiac myosin (setting [4]) was < 1000 nM.

Turning to `C[C@H](Nc1cc(=O)n([C@H](C)C(F)(F)F)c(=O)[nH]1)c1ccccc1` [Compound 94], on bovine cardiac myosin (setting [4]), the IC50 is < 1000 nM.

`CC(C)n1c(=O)cc(N[C@@H](C)c2cccc(N3CCOC3=O)c2)[nH]c1=O` [Compound 43]: the IC50 on bovine cardiac myosin (setting [4]) was < 1000 nM.

Turning to `CC(C)[C@H](Nc1cc(=O)n(C(C)C)c(=O)[nH]1)c1ccccc1` [Compound 81], the IC50 at bovine cardiac myosin (setting [4]) fell in the range of 1000 to 15000 nM.

On to `C[C@H](Nc1cc(=O)n(C2(C)CC2)c(=O)[nH]1)c1ccccc1` [Compound 71, (S)-3-(1-methylcyclopropyl)-6-((1-phenylethyl)amino)pyrimidine-2,4(1H,3H)-dione], for which the IC50 at bovine cardiac myosin (setting [3]) was < 1000 nM. Besides, in assay [1], the “% Reduction in Fractional Shortening 3 h post-dose” value was “+++ (+++ presents a relative change in fractional shortening greater than 30%)”.

With `CC(CC(F)(F)F)n1c(=O)cc(N[C@@H](C)c2ccccc2)[nH]c1=O` (stereo partly drawn) [Compound 99], on bovine cardiac myosin (setting [4]), the IC50 was < 1000 nM.

For the molecule `COc1cccc([C@@H](Nc2cc(=O)n(C(C)C)c(=O)[nH]2)C2CC2)c1` [Compound 7, (S)-6-((cyclopropyl(3-methoxyphenyl)methyl)amino)-3-isopropylpyrimidine-2,4(1H,3H)-dione], the IC50 at bovine cardiac myosin (setting [4]) is < 1000 nM.

For `CC(C)n1c(=O)cc(N[C@@H](C)c2cccc(-n3ccnc3)c2)[nH]c1=O` [Compound 72], the IC50 at bovine cardiac myosin (setting [4]) lay within 1000 to 15000 nM.

As to `CC[C@@H](C)n1c(=O)cc(N[C@@H](C)c2cccc(OC)c2)[nH]c1=O` [Compound 14, 3-(R)-sec-butyl-6-((S)-1-(3-methoxyphenyl)ethylamino)pyrimidine-2,4(1H,3H)-dione], the IC50 at bovine cardiac myosin (setting [4]) is < 1000 nM.

Consider `C[C@H](Nc1cc(=O)n([C@H](C)CO)c(=O)[nH]1)c1ccccc1` [Compound 54, 3-((R)-1-hydroxypropan-2-yl)-6-(((S)-1-phenylethyl)amino)pyrimidine-2,4(1H,3H)-dione], for which the IC50 on bovine cardiac myosin (setting [3]) and at bovine cardiac myosin (setting [4]) was 1000 to 15000 nM each time.

Take `C[C@H](Nc1cc(=O)n(C2CCOCC2)c(=O)[nH]1)c1ccccc1` [Compound 9, (S)-6-((1-phenylethyl)amino)-3-(tetrahydro-2H-pyran-4-yl)pyrimidine-2,4(1H,3H)-dione]: the IC50 on bovine cardiac myosin (setting [4]) is < 1000 nM.

Turning to `CC(C)n1c(=O)cc(N[C@@H](C)c2cccc(C(F)(F)F)c2)[nH]c1=O` [Compound 55, (S)-3-isopropyl-6-((1-(3-(trifluoromethyl)phenyl)ethyl)amino) pyrimidine-2,4(1H,3H)-dione], the IC50 at bovine cardiac myosin (setting [4]) is < 1000 nM.

As to `CC(C)n1c(=O)cc(N[C@@H](C)c2ccc3c(c2)OCO3)[nH]c1=O` [Compound 107], the IC50 on bovine cardiac myosin (setting [3]) was < 1000 nM.

Consider `CC(C)n1c(=O)cc(N[C@@H](C)c2cccc(Cl)c2)[nH]c1=O` [Compound 28], for which, at bovine cardiac myosin (setting [4]), the IC50 is < 1000 nM.

On to `C[C@H](Nc1cc(=O)n(C2CCCCC2)c(=O)[nH]1)c1ccccc1` [Compound 44], for which the IC50 at bovine cardiac myosin (setting [4]) is < 1000 nM.

For the molecule `C[C@H](Nc1cc(=O)n([C@H](C)C2CC2)c(=O)[nH]1)c1ccccc1` [Compound 104], at bovine cardiac myosin (setting [3]), the IC50 was < 1000 nM.

Turning to `CCCn1c(=O)cc(N[C@@H](C)c2cccc(F)c2)[nH]c1=O` [Compound 129], the IC50 at bovine cardiac myosin (setting [3]) lay within 1000 to 15000 nM.

As to `CC(C)n1c(=O)cc(N[C@H](c2ccccc2)C2CCC2)[nH]c1=O` [Compound 8, (S)-6-((Cyclobutyl(phenyl)methyl)amino)-3-isopropylpyrimidine-2,4(1H,3H)-dione], the IC50 on bovine cardiac myosin (setting [4]) was < 1000 nM.

With `COc1ccc([C@H](C)Nc2cc(=O)n(C(C)C)c(=O)[nH]2)cc1` [Compound 121], the IC50 on bovine cardiac myosin (setting [3]) is < 1000 nM.

Turning to `Cc1nccn1-c1cccc([C@H](C)Nc2cc(=O)n(C(C)C)c(=O)[nH]2)c1` [Compound 42], the IC50 on bovine cardiac myosin (setting [4]) was < 1000 nM.
